Source: patent US10188656B2, “Methods of treatment of malignancies” (Agios Pharmaceuticals, Inc., priority 2015, dated 2019)

Key:
Format in all cases: in vivo, human
[1] = test system: advanced hematologic malignancies with an IDH2 mutation; experiment: Example 2: NRAS mutation status at screening versus COMPOUND 1 response (next generation sequencing, Fisher's exact test)
Experimental: A subset of the clinical samples from the trial described in Example 1 were analyzed at screening. Sample types included bone marrow, peripheral blood and mononuclear cells isolated from bone marrow or peripheral blood. DNAs were extracted from these samples and sequenced at Foundation Medicine (see http://foundationone.com/learn.php) using next generation sequencing technique.
A total of 60 genes were identified to carry at least one mutation in the analyzed set (including IDH2 gene). Fisher's exact test was conducted to evaluate the association of somatic mutations with clinical response (responders include CR, CRp, CRi and PR, indicated as +, while none-responders include SD and PD, indicated as − in Table 9). The P-values were adjusted by multiple-test correction.
Mutation status positive (+) means any known mutation(s) in NRAS, and negative (−) means no mutation in NRAS was present.
Positive response status (+) includes CR, mCR and PR and negative response status (−) includes stable disease (SD) and pregressive disease (PD).

[2] = test system: rrAML with an IDH2 mutation; experiment: Example 5: FoundationOne Heme panel co-mutations versus response to COMPOUND 1 in rrAML patients
Experimental: FoundationOne Heme panel analysis was performed on 100 screening samples from rrAML patients in the trial described in Example 1. Sample types included peripheral blood and bone marrow.
While rare, co-occurring mutations in TET2 (5 patients) and IDH1 (4 patients) were also observed in this cohort. Mechanistically, mutations in these genes may counteract the efficacy of COMPOUND 1; however, presence of either of these mutated genes was not associated with significant decrease in ORR or complete response (CR) (Table 10).
To further investigate the association between NRAS mutations and ORR to COMPOUND 1, a more detailed analysis of individual mutation sites was performed. NRAS mutations at G12, G13, and Q61 are the most highly characterized sites known to result in constitutive RAS signaling, see Prior I A, Lewis P D, Mattos C. A comprehensive survey of Ras mutations in cancer, Cancer Res. 2012; 72(10):2457-67. When mutations at these sites were analyzed versus ORR to COMPOUND 1, the observed decrease in ORR became statistically significant (p=0.002, see, FIG. 9A and Table 11). Table 11 provides a contingency table indicating statistical significance of lower overall response rate seen in patients presenting with an NRAS co-mutation.

2-HG plasma levels = experiment: Phase 1/2 study: pharmacodynamic response, 2-HG plasma levels; conditions: most subjects with R140Q mutation, all doses; sustained reduction by Day 1 of Cycle 2
Experimental: Subjects in the dose escalation phase and Part 1 Expansion also will undergo PK/PD assessments over a 10-hour period on C1D15, C2D1, and C4D1. […] These subjects will have urine collected for PK/PD evaluation at screening; prior to dosing on C1D15, C2D1 and Day 1 of all cycles thereafter; and at the End of Treatment visit. Available bone marrow biopsy samples also will be assessed for 2-HG and α-KG levels.
The starting dose of COMPOUND 1 recommended for evaluation is 100 mg QD. This is based on the safety, PK, pharmacodynamics and clinical activity of COMPOUND 1 observed to date in AG221-C-001. […] Thus a dose of 100 mg should adequately achieve inhibition of 2-HG in subjects with either R140Q or R172K mutation.
Serial blood sampling for determination of concentration-time profiles of COMPOUND 1 and its metabolite (6-(6-(trifluoromethyl)pyridin-2-yl)-N2-(2-(trifluoromethyl)pyridin-4-yl)-1,3,5-triazine-2,4-diamine). Urine sampling for determination of concentrations of COMPOUND 1 and its metabolite (6-(6-(trifluoromethyl)pyridin-2-yl)-N2-(2-(trifluoromethyl)pyridin-4-yl)-1,3,5-triazine-2,4-diamine) (dose escalation and Part 1 expansion subjects only). Blood and bone marrow sampling for determination of 2-HG and α-KG levels.

[3] = Phase 1/2 study: safety (AEs, NCI CTCAE v4.03); conditions: 100 mg, including ≥Grade 3
Excerpt: Monitoring of AEs, including determination of DLTs, serious adverse events (SAEs), and AEs leading to discontinuation; safety laboratory parameters; physical examination findings; vital signs; 12-lead ECGs; LVEF; and ECOG PS.
The severity of AEs will be assessed by the NCI CTCAE, Version 4.03.

[4] = rrAML, co-occurring ASXL1 mutation
[5] = rrAML, co-occurring ATM mutation
[6] = rrAML, co-occurring BCOR mutation
[7] = rrAML, co-occurring BCORL1 mutation
[8] = rrAML, co-occurring CBL mutation
[9] = rrAML, co-occurring CEBPA mutation
[10] = rrAML, co-occurring CUX1 mutation
[11] = rrAML, co-occurring DNMT3A mutation
[12] = rrAML, co-occurring ETV6 mutation
[13] = rrAML, co-occurring EZH2 mutation
[14] = rrAML, co-occurring FLT3 mutation
[15] = rrAML, co-occurring GATA2 mutation
[16] = rrAML, co-occurring IDH1 mutation
[17] = rrAML, co-occurring JAK2 mutation
[18] = rrAML, co-occurring KMT2A mutation
[19] = rrAML, co-occurring KRAS mutation
[20] = rrAML, co-occurring NPM1 mutation
[21] = rrAML, co-occurring NRAS mutation
[22] = rrAML, co-occurring PHF6 mutation
[23] = rrAML, co-occurring PTPN11 mutation
[24] = rrAML, co-occurring RUNX1 mutation
[25] = rrAML, co-occurring SETBP1 mutation
[26] = rrAML, co-occurring SF3B1 mutation
[27] = rrAML, co-occurring SRSF2 mutation
[28] = rrAML, co-occurring STAG2 mutation
[29] = rrAML, co-occurring TET2 mutation
[30] = rrAML, co-occurring TP53 mutation
[31] = rrAML, co-occurring U2AF1 mutation
[32] = rrAML, co-occurring WT1 mutation

With `CC(C)(O)CNc1nc(Nc2ccnc(C(F)(F)F)c2)nc(-c2cccc(C(F)(F)F)n2)n1` [COMPOUND 1, 2-methyl-1-[(4-[6-(trifluoromethyl)pyridin-2-yl]-6-{[2-(trifluoromethyl)pyridin-4-yl]amino}-1,3,5-triazin-2-yl)amino]propan-2-ol] the number of patients ([1]; response status +, NRAS mutation +) was 2, the number of patients ([1]; response status +, NRAS mutation −) was 55 and the number of patients ([1]; response status − (SD, PD), NRAS mutation +) was 21. For the same compound, the number of patients ([1]; response status − (SD, PD), NRAS mutation −) was 40, the “number of patients, No Response” value ([2]; NRAS mt (G12, G13, Q61)) was 13 and the “number of patients, Response” value ([2]; NRAS mt (G12, G13, Q61)) was 1. For the same compound, the “number of patients, No Response” value ([2]; NRAS wt) was 37, the “number of patients, Response” value ([2]; NRAS wt) was 40 and the ORR ([2]; patients with the least (≤3) co-occurring mutations) was 69.2%. For the same compound, the ORR ([2]; patients with the most (≥6) co-occurring mutations) was 23.3%, the CR [2, 4] was 0.269 and the “CR, OR” value [2, 4] was 0.583. For the same compound, the ORR [2, 4] was 0.385, the “ORR, OR” value [2, 4] was 0.784 and the ORR ([2]; rrAML, co-occurring ASXL1 mutation (text)) was 39%. The CR [2, 5] was 0.500, the “CR, OR” value [2, 5] was 1.721 and the ORR [2, 5] was 0.500. For the same compound, the “ORR, OR” value [2, 5] was 1.306, the CR [2, 6] was 0.308 and the “CR, OR” value [2, 6] was 0.743. The ORR [2, 6] was 0.385, the “ORR, OR” value [2, 6] was 0.800 and the CR [2, 7] was 0.000. For the same compound, the “CR, OR” value [2, 7] was 0.334, the ORR [2, 7] was 0.000 and the “ORR, OR” value [2, 7] was 0.254. For the same compound, the CR [2, 8] was 0.333, the “CR, OR” value [2, 8] was 0.853 and the ORR [2, 8] was 0.333. For the same compound, the “ORR, OR” value [2, 8] was 0.646, the CR [2, 9] was 0.167 and the “CR, OR” value [2, 9] was 0.331. For the same compound, the ORR [2, 9] was 0.167, the “ORR, OR” value [2, 9] was 0.250 and the CR [2, 10] was 0.500. For the same compound, the “CR, OR” value [2, 10] was 1.721, the ORR [2, 10] was 0.500 and the “ORR, OR” value [2, 10] was 1.306. The CR [2, 11] was 0.359, the “CR, OR” value [2, 11] was 0.945 and the ORR [2, 11] was 0.513. For the same compound, the “ORR, OR” value [2, 11] was 1.509, the CR [2, 12] was 0.000 and the “CR, OR” value [2, 12] was 0.334. For the same compound, the ORR [2, 12] was 0.500, the “ORR, OR” value [2, 12] was 1.306 and the CR [2, 13] was 0.200. The “CR, OR” value [2, 13] was 0.418, the ORR [2, 13] was 0.200 and the “ORR, OR” value [2, 13] was 0.316. The CR [2, 14] was 0.200, the “CR, OR” value [2, 14] was 0.408 and the ORR [2, 14] was 0.200. For the same compound, the “ORR, OR” value [2, 14] was 0.306, the CR [2, 15] was 0.000 and the “CR, OR” value [2, 15] was 0.334. For the same compound, the ORR [2, 15] was 0.000, the “ORR, OR” value [2, 15] was 0.254 and the CR [2, 16] was 0.250. The “CR, OR” value [2, 16] was 0.563, the ORR [2, 16] was 0.500 and the “ORR, OR” value [2, 16] was 1.310. The CR [2, 17] was 0.000, the “CR, OR” value [2, 17] was 0.182 and the ORR [2, 17] was 0.000. For the same compound, the “ORR, OR” value [2, 17] was 0.138, the CR [2, 18] was 0.286 and the “CR, OR” value [2, 18] was 0.662. For the same compound, the ORR [2, 18] was 0.357, the “ORR, OR” value [2, 18] was 0.703 and the CR [2, 19] was 0.200. The “CR, OR” value [2, 19] was 0.418, the ORR [2, 19] was 0.400 and the “ORR, OR” value [2, 19] was 0.864. The CR [2, 20] was 0.250, the “CR, OR” value [2, 20] was 0.548 and the ORR [2, 20] was 0.417. The “ORR, OR” value [2, 20] was 0.924, the CR [2, 21] was 0.063 and the “CR, OR” value [2, 21] was 0.099. The ORR [2, 21] was 0.188, the “ORR, OR” value [2, 21] was 0.270 and the ORR ([2]; rrAML, co-occurring NRAS mutation (text)) was 19%. For the same compound, the CR [2, 22] was 0.333, the “CR, OR” value [2, 22] was 0.850 and the ORR [2, 22] was 0.500. The “ORR, OR” value [2, 22] was 1.314, the CR [2, 23] was 0.000 and the “CR, OR” value [2, 23] was 0.148. The ORR [2, 23] was 0.000, the “ORR, OR” value [2, 23] was 0.112 and the CR [2, 24] was 0.217. For the same compound, the “CR, OR” value [2, 24] was 0.429, the ORR [2, 24] was 0.261 and the “ORR, OR” value [2, 24] was 0.411. The ORR ([2]; rrAML, co-occurring RUNX1 mutation (text)) was 26%, the CR [2, 25] was 0.000 and the “CR, OR” value [2, 25] was 0.237. The ORR [2, 25] was 0.000, the “ORR, OR” value [2, 25] was 0.180 and the CR [2, 26] was 0.000. For the same compound, the “CR, OR” value [2, 26] was 0.237, the ORR [2, 26] was 0.000 and the “ORR, OR” value [2, 26] was 0.180. For the same compound, the CR [2, 27] was 0.293, the “CR, OR” value [2, 27] was 0.637 and the ORR [2, 27] was 0.341. For the same compound, the “ORR, OR” value [2, 27] was 0.598, the ORR ([2]; rrAML, co-occurring SRSF2 mutation (text)) was 34% and the CR [2, 28] was 0.455. The “CR, OR” value [2, 28] was 1.462, the ORR [2, 28] was 0.455 and the “ORR, OR” value [2, 28] was 1.091. The CR [2, 29] was 0.333, the “CR, OR” value [2, 29] was 0.853 and the ORR [2, 29] was 0.333. For the same compound, the “ORR, OR” value [2, 29] was 0.646, the CR [2, 30] was 0.000 and the “CR, OR” value [2, 30] was 0.334. The ORR [2, 30] was 0.000, the “ORR, OR” value [2, 30] was 0.254 and the CR [2, 31] was 0.500. For the same compound, the “CR, OR” value [2, 31] was 1.721, the ORR [2, 31] was 1.000 and the “ORR, OR” value [2, 31] was 6.678. For the same compound, the CR [2, 32] was 0.333, the “CR, OR” value [2, 32] was 0.853 and the ORR [2, 32] was 0.333. The “ORR, OR” value [2, 32] was 0.646, the “inhibition of 2-HG plasma levels” value (2-HG plasma levels) was “up to 98%” and the safety profile [3] was “consistent with that of lower doses”.
